{"source": "patent US20230292743A1", "about": "“Method for increasing the lifespan and motility of animal sperm using an inhibitor of Slo3 potassium channel” (IMV TECHNOLOGIES, priority 2017, published 2023)", "system": "mouse sperm", "assay": "Ability of mouse sperm to fertilize oocytes after incubation in capacitation medium (in vitro fertilization, 2-cell embryos)", "format": "cell-based", "details": "25 μM quinidine in M16-BSA medium, 12 hours incubation, vs control", "experimental": "Mouse sperm was obtained by manual trituration of caudae epididymides from male and were allowed to swim in M2 medium (from Sigma) for 10 minutes. The M2 medium composition in g/L is as follows: CaCl2 0.25; MgSO4 (anhydrous) 0.1649; KCl 0.35635; K2HPO4 0.162; NaHCO3 0.35; NaCl 5.53193; Albumin, Bovine Fraction V 4.0; D-Glucose 1.0; HEPES (for 4-(2-HydroxyEthyl)-1-Piperazine EthaneSulfonic acid)×Na 5.42726; Pyruvic Acid×Na 0.0363; DL-Lactic Acid×Na 2.95). Sperm were then capacitated in M16 medium (from Sigma) with 2% fatty acid-free BSA (for Bovine Serum Albumin) (named “M16-BSA medium”) at 37° C. in a 5% v/v CO2 incubator for different times as specified. M16 medium is a commercial and commonly used medium for in vitro fertilization and culture of preimplantation stage embryos. Oocytes were collected from mature OF1 females, synchronized with 5 units of pregnant mare serum gonadotrophin (PMSG) and 5 units of human chorionic gonadotrophin (HCG). Cumulus were harvested directly from the ampulla and sperm were injected into the M16 droplets containing the cumulus. 1. The first test related to the ability of mouse sperm to fertilize oocytes when incubated prior fertilization in a capacitation medium containing clofilium with regard to a control medium, which is the same capacitation medium but without clofilium. The capacitation medium was M16-BSA medium. The control medium was the M16-BSA medium containing the sperm. It was compared to the same medium further including clofilium at a concentration of 5 μM (in the M16-BSA medium containing the sperm). Sperm was incubated in M16-BSA medium with or without clofilium and then added to M16 droplets containing the cumulus comprising the oocytes. Two-cell embryos were counted at 48 h post insemination (n=3). The number of oocytes reaching the two-cell stage were counted at 48 hours after fertilization. Two different concentrations of clofilium were tested: 0.2 μM of clofilium and 5 μM of clofilium (in the M16-BSA medium containing the sperm). The sperm incubation time prior fertilization was 12 hours. The test related to the ability of mouse sperm to fertilize oocytes, sperm being incubated prior fertilization in a medium containing quinidine with regard to a control medium, without quinidine. The control medium was the M16-BSA medium containing the sperm (“control”). It was compared to the same medium further including quinidine, at various concentrations 5 μM quinidine (“5 μM quinidine”), 10 μM quinidine (“10 μM quinidine”), 25 μM quinidine (“25 μM quinidine”) and 100 μM quinidine (“100 μM quinidine”)."}
{"smiles": "C=C[C@H]1CN2CC[C@H]1C[C@@H]2[C@@H](O)c1ccnc2ccc(OC)cc12", "note": "[quinidine, (9S)-6′-methoxycinchonan-9-ol]", "values": [{"measurement": "percentage of 2-cell embryos vs mature oocytes at 24 h post fertilization (sperm lifespan)", "result": "better lifespan than the non-treated"}]}
